Read-outs that look alike come from different tables or passages of the source.
Columns and labels:
[1] = tested on: spontaneously hypertensive rats; test: hypotensive effect in spontaneously hypertensive rats; assay type: in vivo, rat
From the text: The present compounds have a unique hypotensive effect in spontaneously hypertensive rats. The spontaneously hypertensive rats, abbreviated as SH rats, are produced by selective breeding of spontaneously hypertensive rats and continuous inbreeding with hypertensive mates, and they might be acknowledged as genetically hypertensive. It is believed that SH rats have a striking similarity to human essential hypertension and their reactions can be extrapolated to this morbid condition.
In the blood pressure test, SH rats weighing 210 - 250 g and aged 13-15 weeks were used, and the compounds tested were administered intraperitoneally. Each value in the Table V hows an average figure for three rats.

[2] = tested on: aortic wall of rabbits; test: regression of preestablished cholesterol-induced atherosclerosis in rabbits (cholesterol content of the aortic wall); assay type: in vivo, albino rabbits; settings: oral 1 mg/Kg daily, head prints (μg)
From the text: For the regressive test, 50 healthy albino rabbits were fed with a diet containing 1% cholesterol for 15 weeks. Five rabbits were killed at the 15th week of the cholesterol feeding and the remaining 45 rabbits were divided into 3 groups. […] Five each of the rabbits of the 3 groups were killed after 6, 10 and 20 weeks, respectively. The total contents of cholesterol in the aortic wall were estimated by gas chromatography, the results of which are shown in the Table III.
1. The total content of cholesterol in the aortic wall was measured by the procedure described in T. Shimamoto, F. Numano, T. Fujita et al.; Asian med. Journal, 8. 12 (1965) 2. […] 3. The total chloesterol contents indicated in Table III were shown in μg per one mg of the dried aortic wall. The value in the Table is the average figure for 5 rabbits

[3] = target: cyclic AMP phosphodiesterase; test: inhibition of cyclic AMP phosphodiesterase, aortic wall intima (rabbit); assay type: biochemical; settings: 50% inhibition of cyclic AMP phosphodiesterase; read-out: I50, Aortic Wall, Intima (rabbit)
Description: (§1) The procedure of the experiment was carried out in accordance with the method described in H. Hidaka and M. Shibuya: title "A new assay of cyclic nucleotide phosphodiesterase and its application to humans", Biochemical Medicine, (in press).

[4] = tested on: human platelet; test: human platelet aggregation in vitro induced by ADP or adrenaline (CPRP); assay type: cell-based; settings: 200 s
Description: Samples of human CPRP (citrated platelet-rich plasma) were incubated at 37°C. for 200 sec. with 1/10 volume of saline containing various amount of the compound to be tested. To the mixture was then added ADP (3μMole) or adrenaline (1 μg/ml). Intensity of primary and secondary aggregation was measured with a platelet aggregation meter (Chrono-Log, Model 300).
Intensity of ADP- or adrenaline-induced aggregation of each sample, which was incubated with the compound, was compared with that of the same sample incubated with saline. The ratio was expressed as a percentage of intensity of aggregation with the compound against one with saline.
The intensity of primary and secondary aggregation of platelets was measured by the procedure described in H. Yamazaki, T. Sano, et al.; title[Platelet Functions in Thromboembolic Disorders] Thrombosis et Diatheses Haemorrhagica "in press" and the references cited therein.

[5] = target: cyclic AMP phosphodiesterase; test: inhibition of cyclic AMP phosphodiesterase, aortic wall media (rabbit); assay type: biochemical; settings: 50% inhibition of cyclic AMP phosphodiesterase; read-out: I50, Aortic Wall, Media (rabbit)
Description: as §1

[6] = tested on: aorta of rabbits; test: prevention of cholesterol-induced atherosclerosis in rabbits (surface covered by fatty streaks in the aorta); assay type: in vivo, albino rabbits; settings: rabbit aorta; oral 1 mg/Kg daily, 15 weeks, diet with 1% cholesterol; placebo 54.6±5.4
Description: Forty healthy albino rabbits of the same age and of the same family were used in the experiment.
After the completion of the regimen, the rabbits were killed and the percentage of the surface covered by fatty streaks was measured in each aorta of the rabbits stained with Sundan IV. The percent of the surface covered by fatty streaks in the aorta of the rabbits was measured by the procedure described in T. Shimamoto, F. Numano, T. Fujita; American Heart Journal, 71, 2216 (1966).

[7] = tested on: cyclic AMP phosphodiesterase; test: inhibition of cyclic AMP phosphodiesterase, human platelet; assay type: biochemical; settings: 50% inhibition of cyclic AMP phosphodiesterase; read-out: I50, Platelet (human)
Description: as §1

[8] = in vivo; settings: mouse, oral, mice
[9] = 3.1 mg/Kg intraperitoneally, 1 hr
[10] = 3.1 mg/Kg intraperitoneally, 3 hr
[11] = 3.1 mg/Kg intraperitoneally, 6 hr
[12] = 3.1 mg/Kg intraperitoneally, 24 hr
[13] = 3.1 mg/Kg intraperitoneally, 48 hr
[14] = 12.5 mg/Kg intraperitoneally, 1 hr
[15] = 12.5 mg/Kg intraperitoneally, 3 hr
[16] = 12.5 mg/Kg intraperitoneally, 6 hr
[17] = 12.5 mg/Kg intraperitoneally, 24 hr
[18] = 12.5 mg/Kg intraperitoneally, 48 hr
[19] = 50 mg/Kg intraperitoneally, 1 hr
[20] = 50 mg/Kg intraperitoneally, 3 hr
[21] = 50 mg/Kg intraperitoneally, 6 hr
[22] = 50 mg/Kg intraperitoneally, 24 hr
[23] = 50 mg/Kg intraperitoneally, 48 hr
[24] = 50 mg/Kg intraperitoneally, before dosing
[25] = 40 μg/ml, intensity with compound vs saline, read-out: Inhibition ratio, primary aggregation, ADP 3 μM
[26] = 40 μg/ml, intensity with compound vs saline, read-out: Inhibition ratio, secondary aggregation, ADP 3 μM
[27] = read-out: Inhibition ratio, primary aggregation, Adrenaline 1μg/ml
[28] = read-out: Inhibition ratio, secondary aggregation, Adrenaline 1μg/ml
[29] = 80 μg/ml, intensity with compound vs saline, read-out: Inhibition ratio, primary aggregation, ADP 3 μM
[30] = 80 μg/ml, intensity with compound vs saline, read-out: Inhibition ratio, secondary aggregation, ADP 3 μM
[31] = 300 μg/ml, intensity with compound vs saline, read-out: Inhibition ratio, primary aggregation, ADP 3 μM
[32] = 300 μg/ml, intensity with compound vs saline, read-out: Inhibition ratio, secondary aggregation, ADP 3 μM

## CCOC(=O)c1c(C)cc2c(CO)n[nH]c(=O)c2c1C [6,8-dimethyl-7-ethoxycarbonyl-4-hydroxymethyl-1-phthalazone]
[1]; [9]
  Blood Pressure: 170
  Depression % (blood pressure): 1.7%
[1]; [10]
  Blood Pressure: 138
  Depression % (blood pressure): 20.2%
[1]; [11]
  Blood Pressure: 110
  Depression % (blood pressure): 36.4%
[1]; [12]
  Blood Pressure: 135
  Depression % (blood pressure): 22.0%
[1]; [13]
  Blood Pressure: 150
  Depression % (blood pressure): 13.3%
[1]; 3.1 mg/Kg intraperitoneally, before dosing
  Blood Pressure: 173
[1]; [14]
  Blood Pressure: 173
  Depression % (blood pressure): 1.1%
[1]; [15]
  Blood Pressure: 155
  Depression % (blood pressure): 11.4%
[1]; [16]
  Blood Pressure: 120
  Depression % (blood pressure): 28.6%
[1]; [17]
  Blood Pressure: 142
  Depression % (blood pressure): 18.9%
[1]; [18]
  Blood Pressure: 155
  Depression % (blood pressure): 11.4%
[1]; 12.5 mg/Kg intraperitoneally, before dosing
  Blood Pressure: 175
[1]; [19]
  Blood Pressure: 165
  Depression % (blood pressure): 2.9%
[1]; [20]
  Blood Pressure: 132
  Depression % (blood pressure): 22.4%
[1]; [21]
  Blood Pressure: 110
  Depression % (blood pressure): 35.3%
[1]; [22]
  Blood Pressure: 145
  Depression % (blood pressure): 14.7%
[1]; [23]
  Blood Pressure: 152
  Depression % (blood pressure): 10.6%
[1]; [24]
  Blood Pressure: 170
[2]; 6 weeks, placebo 32.1±3.6
  Cholesterol content (aortic wall, total): 20.8±3.1 μg/mg dry weight
[2]; 10 weeks, placebo 33.8±3.0
  Cholesterol content (aortic wall, total): 9.7±4.2 μg/mg dry weight
[2]; 20 weeks, placebo 29.5±5.4
  Cholesterol content (aortic wall, total): 4.2±1.8 μg/mg dry weight
[3]
  IC50: 1.6 µM
[4]; 2.5 μg/ml, intensity with compound vs saline, read-out: Inhibition ratio, primary aggregation, ADP 3 μM
  activity at 2.5 µg/mL: 91.7 ± 8.3%
[4]; 2.5 μg/ml, intensity with compound vs saline, read-out: Inhibition ratio, secondary aggregation, ADP 3 μM
  activity at 2.5 µg/mL: 96 ± 8.7%
[4]; 5 μg/ml, intensity with compound vs saline, read-out: Inhibition ratio, primary aggregation, ADP 3 μM
  activity at 5 µg/mL: 93.3 ± 8.9%
[4]; 5 μg/ml, intensity with compound vs saline, read-out: Inhibition ratio, secondary aggregation, ADP 3 μM
  activity at 5 µg/mL: 59.8 ± 11.3%
[4]; 10 μg/ml, intensity with compound vs saline, read-out: Inhibition ratio, primary aggregation, ADP 3 μM
  activity at 10 µg/mL: 90.6 ± 3.8%
[4]; 10 μg/ml, intensity with compound vs saline, read-out: Inhibition ratio, secondary aggregation, ADP 3 μM
  activity at 10 µg/mL: 49.9 ± 6.9%
[4]; 20 μg/ml, intensity with compound vs saline, read-out: Inhibition ratio, primary aggregation, ADP 3 μM
  activity at 20 µg/mL: 93.1 ± 8.2%
[4]; 20 μg/ml, intensity with compound vs saline, read-out: Inhibition ratio, secondary aggregation, ADP 3 μM
  activity at 20 µg/mL: 56.2 ± 6.3%
[4]; [25]
  activity at 40 µg/mL: 68.5 ± 5.2%
[4]; [26]
  activity at 40 µg/mL: 41.9 ± 2.2%
[4]; [27]
  activity at 2.5 µg/mL: 88.5 ± 3.1%
  activity at 5 µg/mL: 82.4 ± 3%
  activity at 10 µg/mL: 89.1 ± 7.3%
  activity at 20 µg/mL: 97.5 ± 7.5%
[4]; [28]
  activity at 2.5 µg/mL: 52.8 ± 7.5%
  activity at 5 µg/mL: 52.4 ± 7.3%
  activity at 10 µg/mL: 57.1 ± 16%
  activity at 20 µg/mL: 99.6 ± 13.2%
[5]
  IC50: 24 µM
[6]
  Percent of surface covered by fatty streaks: 16.2±4.3%
[7]
  IC50: 4.1 µM

## Cn1c(=O)c2c(ncn2C)n(C)c1=O [caffeine]
[5]
  IC50: 460 µM
[7]
  IC50: 350 µM

## CC(=O)Oc1ccccc1C(=O)O [Acetylsalicylic acid]
[4]; [25]
  activity at 40 µg/mL: 98.9 ± 3.4%
[4]; 40 μg/ml, intensity with compound vs saline, read-out: Inhibition ratio, primary aggregation, Adrenaline 1μg/ml
  activity at 40 µg/mL: 106 ± 3.3%
[4]; [26]
  activity at 40 µg/mL: 78 ± 9.9%
[4]; 40 μg/ml, intensity with compound vs saline, read-out: Inhibition ratio, secondary aggregation, Adrenaline 1μg/ml
  activity at 40 µg/mL: 45 ± 7.8%
[4]; [29]
  activity at 80 µg/mL: 95.7 ± 1.8%
[4]; 80 μg/ml, intensity with compound vs saline, read-out: Inhibition ratio, primary aggregation, Adrenaline 1μg/ml
  activity at 80 µg/mL: 95.6 ± 5.2%
[4]; [30]
  activity at 80 µg/mL: 70.2 ± 10.1%
[4]; 80 μg/ml, intensity with compound vs saline, read-out: Inhibition ratio, secondary aggregation, Adrenaline 1μg/ml
  activity at 80 µg/mL: 46.5 ± 7.9%
[4]; [31]
  activity at 300 µg/mL: 109 ± 3.6%
[4]; 300 μg/ml, intensity with compound vs saline, read-out: Inhibition ratio, primary aggregation, Adrenaline 1μg/ml
  activity at 300 µg/mL: 108 ± 2.6%
[4]; [32]
  activity at 300 µg/mL: 75.5 ± 5.9%
[4]; 300 μg/ml, intensity with compound vs saline, read-out: Inhibition ratio, secondary aggregation, Adrenaline 1μg/ml
  activity at 300 µg/mL: 62.7 ± 10.7%

## O=c1[nH]nc(CO)c2ccccc12 [4-hydroxymethyl-1-phthalazone]
[1]; [19]
  Blood Pressure: 178
[1]; [20]
  Blood Pressure: 179
[1]; [21]
  Blood Pressure: 180
[1]; [22]
  Blood Pressure: 182
[1]; [23]
  Blood Pressure: 184
[1]; [24]
  Blood Pressure: 183
[1]; intraperitoneal or oral doses up to 50 mg/Kg
  hypotensive effect (in words): did not exhibit a significant hypotensive effect
[8]
  LD50: 4000 mg/kg
[4]; [25]
  activity at 40 µg/mL: 86.2 ± 2.5%
[4]; [26]
  activity at 40 µg/mL: 72 ± 6.8%
[4]; [29]
  activity at 80 µg/mL: 82.4 ± 3.2%
[4]; [30]
  activity at 80 µg/mL: 64.9 ± 6.7%
[4]; [31]
  activity at 300 µg/mL: 84.5 ± 2%
[4]; [32]
  activity at 300 µg/mL: 68.3 ± 3.8%
[4]; [27]
  activity at 40 µg/mL: 98.8 ± 5.9%
  activity at 80 µg/mL: 92.3 ± 6%
  activity at 300 µg/mL: 85.4 ± 3.1%
[4]; [28]
  activity at 40 µg/mL: 85.9 ± 10.1%
  activity at 80 µg/mL: 69.2 ± 7.2%
  activity at 300 µg/mL: 60.2 ± 8%
[6]
  Percent of surface covered by fatty streaks: 36.8±5.2%

Source: patent US3963716A, “Novel 1-phthalazone derivative, a process for its preparation and a pharmaceutical composition containing it” (priority 1973, dated 1976)
